B1: SerpinB1: 42 kD serine peptidase inhibitor protein regulating neutrophil proteases; used as recombinant human SerpinB1 (protein, UniProt P30740 1-379, looked up)
Leukocyte elastase inhibitor: MEQLSSANTRFALDLFLALSENNPAGNIFISPFSISSAMAMVFLGTRGNTAAQLSKTFHFNTVEEVHSRFQSLNADINKRGASYILKLANRLYGEKTYNFLPEFLVSTQKTYGADLASVDFQHASEDARKTINQWVKGQTEGKIPELLASGMVDNMTKLVLVNAIYFKGNWKDKFMKEATTNAPFRLNKKDRKTVKMMYQKKKFAYGYIEDLKCRVLELPYQGEELSMVILLPDDIEDESTGLKKIEEQLTLEKLHEWTKPENLDFIEVNVSLPRFKLEESYTLNSDLARLGVQDLFNSSKADLSGMSGARDIFISKIVHKSFVEVNEEGTEAAAATAGIATFCMLMPEENFTADHPFLFFIRHNSSGSILFLGRFSSP

Legend:
[1] = tested on: freshly isolated primary mouse islets (β-cells); experiment: Primary mouse islet β-cell proliferation by Ki67 immunofluorescent staining (SerpinB1, ovalbumin, Sivelestat); type: cell-based
Description: To test whether SerpinB1 is a β-cell growth factor, we cultured freshly isolated primary mouse islets in presence of various doses of recombinant human SerpinB1 or ovalbumin (SerpinB14) and evaluated β-cell proliferation by Ki67 immunofluorescent staining (known to those of ordinary skill in the art). […] A major substrate of SerpinB1 is neutrophil elastase. To investigate whether the proliferative action of SerpinB1 is mediated by antagonizing neutrophil elastase activity, we assessed the ability of the neutrophil elastase inhibitor, Sivelestat (Sivelestat is the International Nonproprietary Name (INN) as given by the World Health Organization (WHO); the chemical name is: N-{2-[({4-[(2,2-dimethylpropanoyl)oxy]phenyl}sulfonyl)amino]benzoyl}glycine), to stimulate islet β-cell proliferation in vitro.
In all experiments, cell counting was manually performed in a blinded fashion by a single observer. BrdU+ or Ki67+β cells were assessed by immunofluorescence microscopy. Insulin+ cells showing nuclear DAPI staining were considered as β cells. Insulin+ cells showing nuclear colocalized staining for DAPI+ and Ki67+ (or BrdU+) were counted as proliferating β cells. The double-positive cells (Ins+/BrdU+ or Ins+/Ki67+) were confirmed in randomly selected cells in all experiments by confocal microscopy.

[2] = tested on: human (EndoC-βH1) β-cells; experiment: Ki67 positive human β-cells (EndoC-βH1) with Sivelestat; type: cell-based; details: 100 μg/ml; compared to non-treated cells
[3] = 1 μg/ml, SerpinB1 compared to islets cultured at a similar concentration of ovalbumin

Molecule | number of proliferating insulin+ cells ([1]; higher doses (e.g. 10 and 50 μg/ml)) | islet β-cell proliferation in vitro ([1]; low doses (1 and 5 μg/ml), FIG. 12) | number of Ki67 positive β-cells [2] | Ki67+ insulin+ cells (β-cell proliferation) [1, 3] | Ki67+ insulin+ cells (β-cell proliferation) ([1]; isolated mouse islets cultured with various doses of recombinant SerpinB1)
CC(C)(C)C(=O)Oc1ccc(S(=O)(=O)Nc2ccccc2C(=O)NCC(=O)O)cc1 [Sivelestat, N-{2-[({4-[(2,2-dimethylpropanoyl)oxy]phenyl}sulfonyl)amino]benzoyl}glycine] | substantial increase | do not enhance β-cell proliferation | increased |  | 
ovalbumin: ovalbumin (SerpinB14), control protein for SerpinB1 in islet culture |  |  |  | normal low β-cell proliferation | 
B1 |  |  |  | reached statistical significance | dose-dependent increase
